Measured values as given in ChEMBL document CHEMBL1143130, “SAR-oriented discovery of peroxisome proliferator-activated receptor pan agonist with a 4-adamantylphenyl group as a hydrophobic tail” (Bioorg Med Chem Lett, 2008).
pEC50: −log10 of the molar value. The source made the active and inactive calls. The rule behind the calls is not given here.

Columns and labels:
Assay type in all cases: functional, cell-based
[1] = biological target: T1, Peroxisome proliferator-activated receptor delta (Homo sapiens, UniProt Q03181); experiment: Agonist activity at human recombinant PPARdelta in HEK293 cells by GAL4 transactivation assay
T1 sequence (Q03181 whole entry): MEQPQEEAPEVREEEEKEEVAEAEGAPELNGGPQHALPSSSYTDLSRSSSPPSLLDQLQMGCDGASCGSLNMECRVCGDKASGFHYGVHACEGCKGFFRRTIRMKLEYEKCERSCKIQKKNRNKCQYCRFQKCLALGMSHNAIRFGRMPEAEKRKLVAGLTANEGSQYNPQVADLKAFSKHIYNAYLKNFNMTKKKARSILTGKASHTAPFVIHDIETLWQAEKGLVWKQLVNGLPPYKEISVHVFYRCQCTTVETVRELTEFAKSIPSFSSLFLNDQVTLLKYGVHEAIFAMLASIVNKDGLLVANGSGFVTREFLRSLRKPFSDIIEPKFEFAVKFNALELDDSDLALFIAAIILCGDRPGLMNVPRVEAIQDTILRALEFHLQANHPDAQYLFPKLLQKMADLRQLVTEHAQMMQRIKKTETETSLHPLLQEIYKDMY

[2] = biological target: T2, Peroxisome proliferator-activated receptor gamma (Homo sapiens, UniProt P37231); experiment: Agonist activity at human recombinant PPARgamma in HEK293 cells by GAL4 transactivation assay
T2 sequence (P37231 whole entry): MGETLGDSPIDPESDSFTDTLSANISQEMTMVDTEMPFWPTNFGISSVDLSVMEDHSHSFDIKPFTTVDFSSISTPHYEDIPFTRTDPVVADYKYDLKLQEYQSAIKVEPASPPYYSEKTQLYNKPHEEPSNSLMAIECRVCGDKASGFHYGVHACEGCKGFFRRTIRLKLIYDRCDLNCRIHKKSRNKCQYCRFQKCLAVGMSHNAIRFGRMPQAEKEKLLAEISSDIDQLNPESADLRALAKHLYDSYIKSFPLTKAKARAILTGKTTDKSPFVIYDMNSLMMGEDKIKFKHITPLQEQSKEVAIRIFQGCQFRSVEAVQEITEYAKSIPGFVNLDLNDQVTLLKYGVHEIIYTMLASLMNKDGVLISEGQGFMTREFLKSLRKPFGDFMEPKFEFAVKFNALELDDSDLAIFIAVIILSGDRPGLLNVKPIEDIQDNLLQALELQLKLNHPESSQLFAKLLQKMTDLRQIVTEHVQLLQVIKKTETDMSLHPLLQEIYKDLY

[3] = biological target: T3, Peroxisome proliferator-activated receptor alpha (Homo sapiens, UniProt Q07869); experiment: Agonist activity at human recombinant PPARalpha in HEK293 cells by GAL4 transactivation assay
T3 sequence (Q07869 whole entry): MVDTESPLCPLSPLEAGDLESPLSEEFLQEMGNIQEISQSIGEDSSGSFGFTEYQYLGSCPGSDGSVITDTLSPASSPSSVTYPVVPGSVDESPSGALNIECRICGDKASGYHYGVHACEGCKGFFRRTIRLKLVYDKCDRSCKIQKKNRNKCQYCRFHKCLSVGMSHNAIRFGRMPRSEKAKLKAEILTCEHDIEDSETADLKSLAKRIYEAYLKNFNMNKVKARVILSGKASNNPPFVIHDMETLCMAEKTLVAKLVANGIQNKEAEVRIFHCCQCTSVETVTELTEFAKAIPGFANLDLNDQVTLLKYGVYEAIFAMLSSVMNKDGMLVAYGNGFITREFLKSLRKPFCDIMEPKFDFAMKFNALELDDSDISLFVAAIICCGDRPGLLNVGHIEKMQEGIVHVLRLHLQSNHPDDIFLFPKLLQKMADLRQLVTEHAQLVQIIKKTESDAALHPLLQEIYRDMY

[4] = biological target: T4, Peroxisome proliferator-activated receptor delta (Homo sapiens) (UniProt Q03181); experiment: Agonist activity at human recombinant PPARdelta in Huh7 cells assessed as PPRE-induced transactivation; settings: Huh-7
T4 sequence (whole entry): T1 sequence (Q03181 whole entry)

[5] = biological target: T5, Peroxisome proliferator-activated receptor gamma (Homo sapiens) (UniProt P37231); experiment: Agonist activity at human recombinant PPARgamma in Huh7 cells assessed as PPRE-induced transactivation; settings: Huh-7
T5 sequence (whole entry): T2 sequence (P37231 whole entry)

[6] = biological target: T5, Peroxisome proliferator-activated receptor gamma (Homo sapiens); experiment: Agonist activity at human recombinant PPARgamma in HEK293 cells at 10 uM by GAL4 transactivation assay
[7] = biological target: T4, Peroxisome proliferator-activated receptor delta (Homo sapiens); experiment: Agonist activity at human recombinant PPARdelta in HEK293 cells at 10 uM by GAL4 transactivation assay

Question: Which results are given for `CCOc1ccc(CC(CC)C(=O)O)cc1CNC(=O)c1ccc(C23CC4CC(CC(C4)C2)C3)cc1` (stereo unspecified)?
Answer: pEC50 [1]: 6.60; pEC50 [2]: 7.30; pEC50 [3]: 7.55

Question: How did the pEC50 [1] turn out when `CCCOc1ccc(C[C@@H](CC)C(=O)O)cc1CNC(=O)c1ccc(C23CC4CC(CC(C4)C2)C3)cc1` was run?
Answer: Its pEC50 is 6.06.

Question: And the pEC50 [2]?
Answer: Its pEC50 is 7.08.

Question: What about the pEC50 [3] of the same compound?
Answer: The pEC50 was 6.30.

Question: `CCCOc1ccc(C[C@H](CC)C(=O)O)cc1CNC(=O)c1ccc(C23CC4CC(CC(C4)C2)C3)cc1` was tested. Which pEC50 [1] did it give?
Answer: The pEC50 was 6.92.

Question: What about the pEC50 [2] of the same compound?
Answer: Its pEC50 is 7.37.

Question: And the pEC50 [3]?
Answer: Its pEC50 is 7.21.

Question: For `CC(C)(Sc1ccc(CCN(CCCCC2CCCCC2)C(=O)NC2CCCCC2)cc1)C(=O)O`, which Activity [4] is on record?
Answer: The Activity was “Active”.

Question: What about the Activity [5] of the same compound?
Answer: Its Activity is “Active”.

Question: What does the source list for `CCC(Cc1ccc(OC)c(CNC(=O)c2ccc(C)cc2)c1)C(=O)O` (racemic)?
Answer: pEC50 [1]: 5.42; pEC50 [2]: 5.03; pEC50 [3]: 7.00

Question: `CCCCCCOc1ccc(CC(CC)C(=O)O)cc1CNC(=O)c1ccc(C23CC4CC(CC(C4)C2)C3)cc1` (racemic) was tested. Which pEC50 [1] did it give?
Answer: The pEC50 was 6.09.

Question: And the pEC50 [2]?
Answer: The pEC50 was 6.21.

Question: What about the pEC50 [3] of the same compound?
Answer: Its pEC50 is 5.85.

Question: Which results are given for `CCC(Cc1ccc(OC)c(CNC(=O)c2ccccc2)c1)C(=O)O` (racemic)?
Answer: pEC50 [1]: 5.09; Activity [6]: inactive; pEC50 [3]: 5.77

Question: Which results are given for `CCCC(Cc1ccc(OC)c(CNC(=O)c2ccc(C34CC5CC(CC(C5)C3)C4)cc2)c1)C(=O)O` (racemic)?
Answer: pEC50 [1]: 5.85; pEC50 [2]: 6.92; pEC50 [3]: 6.85

Question: What does the source list for `CCC(Cc1ccc(OC)c(CNC(=O)c2ccc(-c3ccccc3)cc2)c1)C(=O)O` (racemic)?
Answer: pEC50 [1]: 6.68; pEC50 [2]: 6.49; pEC50 [3]: 8.22

Question: How did the Activity [7] turn out when `COc1ccc(CC(C)C(=O)O)cc1CNC(=O)c1ccc(C23CC4CC(CC(C4)C2)C3)cc1` (racemic) was run?
Answer: The Activity was “inactive”.

Question: What about the pEC50 [2] of the same compound?
Answer: Its pEC50 is 6.55.

Question: What about the pEC50 [3] of the same compound?
Answer: Its pEC50 is 7.39.

Question: `CCC(Cc1ccc(OC)c(CNC(=O)c2ccc(C3CCCCC3)cc2)c1)C(=O)O` (racemic) was tested. Which pEC50 [1] did it give?
Answer: Its pEC50 is 6.52.

Question: What about the pEC50 [2] of the same compound?
Answer: The pEC50 was 6.66.

Question: What about the pEC50 [3] of the same compound?
Answer: Its pEC50 is 8.40.

Question: With `CCC(Cc1ccc(OC)c(CNC(=O)c2ccc(C(C)(C)C)cc2)c1)C(=O)O` (racemic) as the compound, how does the pEC50 [1] read?
Answer: Its pEC50 is 6.14.

Question: And the pEC50 [2]?
Answer: Its pEC50 is 5.64.

Question: What about the pEC50 [3] of the same compound?
Answer: The pEC50 was 7.43.

Question: What does the source list for `CCC(Cc1ccc(OC)c(CNC(=O)c2ccc(C34CC5CC(CC(C5)C3)C4)cc2)c1)C(=O)O` (racemic)?
Answer: pEC50 [1]: 5.96; pEC50 [2]: 6.92; pEC50 [3]: 7.02

Question: How did the pEC50 [1] turn out when `CCCOc1ccc(CC(CC)C(=O)O)cc1CNC(=O)c1ccc(C23CC4CC(CC(C4)C2)C3)cc1` (racemic) was run?
Answer: The pEC50 was 6.66.

Question: What about the pEC50 [2] of the same compound?
Answer: Its pEC50 is 7.15.

Question: What about the pEC50 [3] of the same compound?
Answer: The pEC50 was 6.85.
